Tests used:
Format in all cases: in vivo
[1] = system: barnyard grass; test: Test Example 1: weedkilling efficacy, preemergent weed treatment in the submerged state; A: barnyard grass; details: treatment dosage 252 g/ha
Procedure, shortened: (§1)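 Pots of alluvial soil flooded 4 cm deep, sown with barnyard grass, bulrush and oval-leafed pondweed and transplanted with 2.5-leaf rice. Emulsified compound applied to the water surface on sowing day at stated g/ha; greenhouse 25–30 °C, effects assessed 3 weeks after treatment.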

[2] = system: bulrush; test: Test Example 1: weedkilling efficacy, preemergent weed treatment in the submerged state; B: bulrush; details: treatment dosage 252 g/ha
Procedure, shortened: as §1

[3] = system: oval-leafed pondweed; test: Test Example 1: weedkilling efficacy, preemergent weed treatment in the submerged state; C: oval-leafed pondweed; details: treatment dosage 252 g/ha
Procedure, shortened: as §1

[4] = system: transplanted rice; test: Test Example 1: preemergent weed treatment in the submerged state, effect on crop; a: transplanted rice; details: treatment dosage 252 g/ha
Procedure, shortened: as §1

[5] = system: barnyard grass; test: Test Example 2: weedkilling efficacy, growth period weed treatment in the submerged state; A: barnyard grass; details: treatment dosage 252 g/ha
Procedure, shortened: (§2)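 Barnyard grass, bulrush and oval-leafed pondweed sown in alluvial soil under 4 cm flooding, greenhouse 25 to 30° C. At 1-2 leaf stage, water-diluted emulsion applied to the water surface at stated g/ha dosages; effects scored 3 weeks later.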

[6] = system: bulrush; test: Test Example 2: weedkilling efficacy, growth period weed treatment in the submerged state; B: bulrush; details: treatment dosage 252 g/ha
Procedure, shortened: as §2

[7] = system: oval-leafed pondweed; test: Test Example 2: weedkilling efficacy, growth period weed treatment in the submerged state; C: oval-leafed pondweed; details: treatment dosage 252 g/ha
Procedure, shortened: as §2

[8] = system: crabgrass; test: Test Example 3: weedkilling efficacy through soil treatment; D: crabgrass; details: soil treatment, treatment dosage 315 g/ha
From the text: (§3) Weedkilling Efficacy Test Through Soil Treatment
(§4) Sterilized diluvial soil was introduced into 21 cm long, 13 cm wide, 7 cm deep plastic boxes, and seeds of crabgrass, green foxtail, barnyard grass, wild oat, black-grass, Italian ryegrass, common wind-grass, Indian mallow, redroot pigweed, fig-leafed goosefoot, chickweed, catchweed, birds-eye speedwell, corn, soybean, rice, wheat, beet and rapeseed were each spot-sown, and covered with about 1.5 cm of soil. Next, emulsions of compounds of the present invention prepared according to compounding example 2 were diluted with water to give the specified dosages, and applied uniformly onto the soil surface with a small sprayer. The plants were grown by placing the plastic boxes in a greenhouse at 25 to 30° C., and 3 weeks after the pesticide treatment the effect on each type of plant was investigated on the basis of the assessment criteria of test example 1.
(§5) A: barnyard grass, B: bulrush, C: oval-leafed pondweed, D: crabgrass, E: green foxtail, F: barnyard grass, G: wild oat, H: black-grass, I: Italian ryegrass, J: common wind-grass, K: Indian mallow, L: redroot pigweed, M: fig-leafed goosefoot, N: chickweed, O: catchweed, p: birds-eye speedwell, a: transplanted rice, b: directly sown rice, c: corn, d: soybean, e: wheat, f: beet, g: rapeseed
(§6) Further, pesticide dosage (g/ha) indicates the concentration regulated such that treatment was with only the stated number of grams (g), when calculated per hectare (ha).

[9] = system: green foxtail; test: Test Example 3: weedkilling efficacy through soil treatment; E: green foxtail; details: soil treatment, treatment dosage 315 g/ha
From the text: as §3, §4, §5, §6

[10] = system: wild oat; test: Test Example 3: weedkilling efficacy through soil treatment; G: wild oat; details: soil treatment, treatment dosage 315 g/ha
From the text: as §3, §4, §5, §6

[11] = system: black-grass; test: Test Example 3: weedkilling efficacy through soil treatment; H: black-grass; details: soil treatment, treatment dosage 315 g/ha
From the text: as §3, §4, §5, §6

[12] = system: Italian ryegrass; test: Test Example 3: weedkilling efficacy through soil treatment; I: Italian ryegrass; details: soil treatment, treatment dosage 315 g/ha
From the text: as §3, §4, §5, §6

[13] = system: Indian mallow; test: Test Example 3: weedkilling efficacy through soil treatment; K: Indian mallow; details: soil treatment, treatment dosage 315 g/ha
From the text: as §3, §4, §5, §6

[14] = system: redroot pigweed; test: Test Example 3: weedkilling efficacy through soil treatment; L: redroot pigweed; details: soil treatment, treatment dosage 315 g/ha
From the text: as §3, §4, §5, §6

[15] = system: fig-leafed goosefoot; test: Test Example 3: weedkilling efficacy through soil treatment; M: fig-leafed goosefoot; details: soil treatment, treatment dosage 315 g/ha
From the text: as §3, §4, §5, §6

[16] = system: chickweed; test: Test Example 3: weedkilling efficacy through soil treatment; N: chickweed; details: soil treatment, treatment dosage 315 g/ha
From the text: as §3, §4, §5, §6

[17] = system: directly sown rice; test: Test Example 3: soil treatment, effect on crop; b: directly sown rice; details: soil treatment, treatment dosage 315 g/ha
From the text: as §3, §4, §5, §6

[18] = system: corn; test: Test Example 3: soil treatment, effect on crop; c: corn; details: soil treatment, treatment dosage 315 g/ha
From the text: as §3, §4, §5, §6

[19] = system: soybean; test: Test Example 3: soil treatment, effect on crop; d: soybean; details: soil treatment, treatment dosage 315 g/ha
From the text: as §3, §4, §5, §6

[20] = system: wheat; test: Test Example 3: soil treatment, effect on crop; e: wheat; details: soil treatment, treatment dosage 315 g/ha
From the text: as §3, §4, §5, §6

[21] = system: beet; test: Test Example 3: soil treatment, effect on crop; f: beet; details: soil treatment, treatment dosage 315 g/ha
From the text: as §3, §4, §5, §6

Cc1cccc(NC(=O)C(C)(C)N2COCN(c3ccccc3)C2=O)n1 [A-2-38]
A: barnyard grass, weed kill grade [1]: 5 (weed kill ratio 90% or more, (practically complete withering)) | B: bulrush, weed kill grade [2]: 5 (weed kill ratio 90% or more, (practically complete withering)) | C: oval-leafed pondweed, weed kill grade [3]: 4 (weed kill ratio 70% or more, less than 90%) | a: transplanted rice, effect on crop grade [4]: 0 (weed kill ratio 5% or less (practically no effect)) | A (barnyard grass) weedkilling efficacy grade [5]: 3 (weed kill ratio 40% or more, less than 70%) | B (bulrush) weedkilling efficacy grade [6]: 5 (weed kill ratio 90% or more, (practically complete withering)) | C (oval-leafed pondweed) weedkilling efficacy grade [7]: 3 (weed kill ratio 40% or more, less than 70%) | D: crabgrass, weedkilling efficacy grade [8]: 5 (weed kill ratio 90% or more, (practically complete withering)) | E: green foxtail, weedkilling efficacy grade [9]: 5 (weed kill ratio 90% or more, (practically complete withering)) | G: wild oat, weedkilling efficacy grade [10]: 5 (weed kill ratio 90% or more, (practically complete withering)) | H: black-grass, weedkilling efficacy grade [11]: 5 (weed kill ratio 90% or more, (practically complete withering)) | I: Italian ryegrass, weedkilling efficacy grade [12]: 5 (weed kill ratio 90% or more, (practically complete withering)) | K: Indian mallow, weedkilling efficacy grade [13]: 2 (weed kill ratio 20% or more, less than 40%) | L: redroot pigweed, weedkilling efficacy grade [14]: 5 (weed kill ratio 90% or more, (practically complete withering)) | M: fig-leafed goosefoot, weedkilling efficacy grade [15]: 4 (weed kill ratio 70% or more, less than 90%) | N: chickweed, weedkilling efficacy grade [16]: 4 (weed kill ratio 70% or more, less than 90%) | b: directly sown rice, effect on crop grade [17]: 5 (weed kill ratio 90% or more, (practically complete withering)) | c: corn, effect on crop grade [18]: 2 (weed kill ratio 20% or more, less than 40%) | d: soybean, effect on crop grade [19]: 2 (weed kill ratio 20% or more, less than 40%) | e: wheat, effect on crop grade [20]: 0 (weed kill ratio 5% or less (practically no effect)) | f: beet, effect on crop grade [21]: 4 (weed kill ratio 70% or more, less than 90%)

CC(C)(C(=O)Nc1cc(C(F)(F)F)cc(Cl)n1)N1COCN(c2ccccc2)C1=O [A-2-28]
A: barnyard grass, weed kill grade [1]: 5 (weed kill ratio 90% or more, (practically complete withering)) | B: bulrush, weed kill grade [2]: 5 (weed kill ratio 90% or more, (practically complete withering)) | C: oval-leafed pondweed, weed kill grade [3]: 5 (weed kill ratio 90% or more, (practically complete withering)) | a: transplanted rice, effect on crop grade [4]: 2 (weed kill ratio 20% or more, less than 40%) | A (barnyard grass) weedkilling efficacy grade [5]: 5 (weed kill ratio 90% or more, (practically complete withering)) | B (bulrush) weedkilling efficacy grade [6]: 5 (weed kill ratio 90% or more, (practically complete withering)) | C (oval-leafed pondweed) weedkilling efficacy grade [7]: 5 (weed kill ratio 90% or more, (practically complete withering)) | D: crabgrass, weedkilling efficacy grade [8]: 5 (weed kill ratio 90% or more, (practically complete withering)) | E: green foxtail, weedkilling efficacy grade [9]: 5 (weed kill ratio 90% or more, (practically complete withering)) | G: wild oat, weedkilling efficacy grade [10]: 5 (weed kill ratio 90% or more, (practically complete withering)) | H: black-grass, weedkilling efficacy grade [11]: 5 (weed kill ratio 90% or more, (practically complete withering)) | I: Italian ryegrass, weedkilling efficacy grade [12]: 5 (weed kill ratio 90% or more, (practically complete withering)) | K: Indian mallow, weedkilling efficacy grade [13]: 4 (weed kill ratio 70% or more, less than 90%) | L: redroot pigweed, weedkilling efficacy grade [14]: 4 (weed kill ratio 70% or more, less than 90%) | M: fig-leafed goosefoot, weedkilling efficacy grade [15]: 5 (weed kill ratio 90% or more, (practically complete withering)) | N: chickweed, weedkilling efficacy grade [16]: 5 (weed kill ratio 90% or more, (practically complete withering)) | b: directly sown rice, effect on crop grade [17]: 5 (weed kill ratio 90% or more, (practically complete withering)) | c: corn, effect on crop grade [18]: 1 (weed kill ratio 5% or more, less than 20%) | d: soybean, effect on crop grade [19]: 3 (weed kill ratio 40% or more, less than 70%) | e: wheat, effect on crop grade [20]: 1 (weed kill ratio 5% or more, less than 20%) | f: beet, effect on crop grade [21]: 5 (weed kill ratio 90% or more, (practically complete withering))

Cc1cnc(NC(=O)C(C)(C)N2COCN(c3ccccc3)C2=O)s1 [A-1-08]
A: barnyard grass, weed kill grade [1]: 5 (weed kill ratio 90% or more, (practically complete withering)) | B: bulrush, weed kill grade [2]: 5 (weed kill ratio 90% or more, (practically complete withering)) | C: oval-leafed pondweed, weed kill grade [3]: 5 (weed kill ratio 90% or more, (practically complete withering)) | a: transplanted rice, effect on crop grade [4]: 0 (weed kill ratio 5% or less (practically no effect)) | A (barnyard grass) weedkilling efficacy grade [5]: 4 (weed kill ratio 70% or more, less than 90%) | B (bulrush) weedkilling efficacy grade [6]: 5 (weed kill ratio 90% or more, (practically complete withering)) | C (oval-leafed pondweed) weedkilling efficacy grade [7]: 3 (weed kill ratio 40% or more, less than 70%) | D: crabgrass, weedkilling efficacy grade [8]: 5 (weed kill ratio 90% or more, (practically complete withering)) | E: green foxtail, weedkilling efficacy grade [9]: 5 (weed kill ratio 90% or more, (practically complete withering)) | G: wild oat, weedkilling efficacy grade [10]: 3 (weed kill ratio 40% or more, less than 70%) | H: black-grass, weedkilling efficacy grade [11]: 5 (weed kill ratio 90% or more, (practically complete withering)) | I: Italian ryegrass, weedkilling efficacy grade [12]: 4 (weed kill ratio 70% or more, less than 90%) | K: Indian mallow, weedkilling efficacy grade [13]: 1 (weed kill ratio 5% or more, less than 20%) | L: redroot pigweed, weedkilling efficacy grade [14]: 4 (weed kill ratio 70% or more, less than 90%) | M: fig-leafed goosefoot, weedkilling efficacy grade [15]: 2 (weed kill ratio 20% or more, less than 40%) | N: chickweed, weedkilling efficacy grade [16]: 2 (weed kill ratio 20% or more, less than 40%) | b: directly sown rice, effect on crop grade [17]: 4 (weed kill ratio 70% or more, less than 90%) | c: corn, effect on crop grade [18]: 1 (weed kill ratio 5% or more, less than 20%) | d: soybean, effect on crop grade [19]: 0 (weed kill ratio 5% or less (practically no effect)) | e: wheat, effect on crop grade [20]: 0 (weed kill ratio 5% or less (practically no effect)) | f: beet, effect on crop grade [21]: 0 (weed kill ratio 5% or less (practically no effect))
